Tests used:
Assay in all cases: relative viability (nuclei count vs DMSO), 5 days (fraction); higher = more cells survive
Ibrutinib + Phenformin = compound: C=CC(=O)N1CCC[C@@H](n2nc(-c3ccc(Oc4ccccc4)cc3)c3c(N)ncnc32)C1 [Ibrutinib] + N=C(N)NC(=N)NCCc1ccccc1 [Phenformin] (partner 250 µM)
Outline: (§1)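 Lung cancer cell lines were pin-tool dosed in 1536-well plates on the day after seeding, with either a lone drug or a fixed anchor-drug dose plus five library-drug doses (not always all listed) in √10 steps. Nuclei were counted on 4× images after 5 days. Relative viability is the ratio of treated-well to vehicle-well nuclei counts, with each value a median of duplicate plates.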

Ibrutinib + AZD7762 = compound: C=CC(=O)N1CCC[C@@H](n2nc(-c3ccc(Oc4ccccc4)cc3)c3c(N)ncnc32)C1 [Ibrutinib] + NC(=O)Nc1cc(-c2cccc(F)c2)sc1C(=O)N[C@H]1CCCNC1 [AZD7762] (partner 0.2 µM)
Outline: as §1

PAC-1 + Bortezomib = compound: C=CCc1cccc(/C=N/NC(=O)CN2CCN(Cc3ccccc3)CC2)c1O [PAC-1] + CC(C)C[C@H](NC(=O)[C@H](Cc1ccccc1)NC(=O)c1cnccn1)B(O)O [Bortezomib] (partner 0.002 µM)
Outline: as §1

Ibrutinib + Navitoclax = compound: C=CC(=O)N1CCC[C@@H](n2nc(-c3ccc(Oc4ccccc4)cc3)c3c(N)ncnc32)C1 [Ibrutinib] + CC1(C)CCC(c2ccc(Cl)cc2)=C(CN2CCN(c3ccc(C(=O)NS(=O)(=O)c4ccc(N[C@H](CCN5CCOCC5)CSc5ccccc5)c(S(=O)(=O)C(F)(F)F)c4)cc3)CC2)C1 [Navitoclax] (partner 0.5 µM)
Outline: as §1

Cell Line | relative viability (Ibrutinib + Phenformin; first compound 0.005 µM) | relative viability (Ibrutinib + Phenformin; first compound 0.01581 µM) | relative viability (Ibrutinib + Phenformin; first compound 0.05 µM) | relative viability (Ibrutinib + Phenformin; first compound 0.1581 µM) | relative viability (Ibrutinib + Phenformin; first compound 0.5 µM) | relative viability (Ibrutinib + AZD7762; first compound 0.005 µM) | relative viability (Ibrutinib + AZD7762; first compound 0.01581 µM) | relative viability (Ibrutinib + AZD7762; first compound 0.05 µM) | relative viability (Ibrutinib + AZD7762; first compound 0.1581 µM) | relative viability (Ibrutinib + AZD7762; first compound 0.5 µM) | relative viability (PAC-1 + Bortezomib; first compound 0.02 µM) | relative viability (PAC-1 + Bortezomib; first compound 0.06325 µM) | relative viability (PAC-1 + Bortezomib; first compound 0.2 µM) | relative viability (PAC-1 + Bortezomib; first compound 2 µM) | relative viability (Ibrutinib + Navitoclax; first compound 0.005 µM) | relative viability (Ibrutinib + Navitoclax; first compound 0.01581 µM) | relative viability (Ibrutinib + Navitoclax; first compound 0.05 µM) | relative viability (Ibrutinib + Navitoclax; first compound 0.1581 µM) | relative viability (Ibrutinib + Navitoclax; first compound 0.5 µM)
HCC-827 | 0.408 | 0.358 | 0.304 | 0.431 | 0.181 | 0.157 | 0.193 | 0.323 | 0.167 | 0.12 | 1.1 | 1.01 | 1.07 | 0.978 | 1.01 | 0.995 | 1.08 | 1.04 | 0.434
HOP-62 | 0.759 | 0.621 | 0.696 | 0.724 | 0.804 | 0.53 | 0.662 | 0.651 | 0.867 | 0.626 | 0.976 | 0.986 | 0.836 | 0.673 | 1.16 | 1.11 | 1.16 | 1.07 | 1.2
LC-2-ad | 0.552 | 0.579 | 0.56 | 0.478 | 0.531 | 0.905 | 0.801 | 0.861 | 0.786 | 0.599 | 0.981 | 0.971 | 0.999 | 0.957 | 0.408 | 0.362 | 0.535 | 0.477 | 0.402
LCLC-97TM1 | 0.452 | 0.457 | 0.449 | 0.504 | 0.411 | 0.276 | 0.326 | 0.317 | 0.268 | 0.219 | 0.437 | 0.901 | 0.668 | 0.794 | 0.486 | 0.561 | 0.474 | 0.398 | 0.377
LOU-NH91 | 0.59 | 0.642 | 0.557 | 0.711 | 0.45 | 0.684 | 0.701 | 0.717 | 0.801 | 0.754 | 0.452 | 0.475 | 0.469 | 0.526 | 0.601 | 0.572 | 0.549 | 0.585 | 0.407
LU99A | 0.889 | 0.8 | 0.837 | 1.05 | 0.846 | 0.258 | 0.357 | 0.338 | 0.438 | 0.288 | 1.1 | 1.11 | 1.07 | 1.05 | 0.725 | 0.684 | 0.772 | 0.814 | 0.664
LXF-289 | 0.537 | 0.472 | 0.515 | 0.465 | 0.497 | 1.22 | 1.07 | 1.06 | 1.1 | 1.15 | 0.983 | 1.01 | 1.01 | 0.995 | 1.02 | 0.895 | 0.956 | 0.97 | 0.917
NCI-H23 | 0.674 | 0.777 | 0.789 | 0.861 | 0.797 | 0.263 | 0.237 | 0.234 | 0.218 | 0.283 | 0.956 | 1.01 | 0.866 | 0.995 | 0.853 | 0.886 | 0.771 | 0.787 | 0.97

Source: the supplement of paper PMC10307832
